Legend:
SKOV3 ovarian carcinoma = assay: in vitro amino acid uptake, SKOV3 cells; assay type: cell-based, human
Text: The inventive compounds have been evaluated in vitro for tumor binding specificity (i.e. uptake cells) using a variety of tumor cell lines available in the art, along with reference compounds such as Me-AIB and BCH. Detailed description of these assays can be found in Martarello et al. (2002) Journal of Medicinal Chemistry, 45:2250-2259 and McConathy et al. (2003) Nuclear Medicine and Biology, 30:477-490. These, so called “amino acid uptake studies” are typically carried out with radiolabeled compounds in at least five phenotypically different human tumor cell lines (e.g. A549 lung carcinoma, MB468 breast carcinoma, DU145 prostate carcinoma, SKOV3 ovarian carcinoma, and U87 glial blastoma). These tumor cell lines can be grown either in vitro or in vivo with severe combined immunodeficiency (SCID) mice as a host. The fore-mentioned tumor cell lines are available at the Winship Cancer Institute of Emory University.
For the in vitro amino acid uptake studies, all cells can be grown to monolayer confluency in T-175 culture flasks [Corning, Corning, N.Y.] (approx. 1×10^8 cells/flask) in Dulbecco's Modified Eagle's Medium (DMEM) [Sigma, St. Louis, Mo.] in a humidified incubator (37° C., 5% CO2/95% air). Media are supplemented with 10% fetal calf serum [Hyclone, Logan, Utah], and antibiotics (10,000 U/ml penicillin and 10 mg/ml streptomycin) (Sigma, St. Louis, Mo.). For tissue culture passage, monolayer cells are detached by gentle trypsinization, resuspended in complete media, and split 1:10 into new T-flasks. […]
In the in vitro studies the uptake rate of each amino acid compound is measured in each tumor line, as well as the dominant transport mechanisms of each tumor cell line. After trypsinization, cells are resuspended in serum-free media, then counted on a hemocytometer, with viability assessed through Trypan blue staining. […] The vials are placed in a Cobra-II gamma counter (Packard, Meriden, Conn.), with the activity per cell number determined. […] Saline washes are performed as described above, and the filtered cells radioactivity determined on the gamma counter. […]

[1] = system: U87 Glioma Tumor Cells Implanted SC in SCID Mice; assay: tissue distribution, U87 tumor-bearing SCID mice; assay type: in vivo
Description: For the in vitro amino acid uptake studies, all cells can be grown to monolayer confluency in T-175 culture flasks [Corning, Corning, N.Y.] (approx. 1×10^8 cells/flask) in Dulbecco's Modified Eagle's Medium (DMEM) [Sigma, St. Louis, Mo.] in a humidified incubator (37° C., 5% CO2/95% air). Media are supplemented with 10% fetal calf serum [Hyclone, Logan, Utah], and antibiotics (10,000 U/ml penicillin and 10 mg/ml streptomycin) (Sigma, St. Louis, Mo.). For tissue culture passage, monolayer cells are detached by gentle trypsinization, resuspended in complete media, and split 1:10 into new T-flasks. Cultures are passaged weekly, and fed fresh media every 2 to 3 days. To initiate tumor growth in SCID mice, 1×10^6 cells are injected s.c. bilaterally into the flanks (inguinal region) of the recipient animals using a 1 ml syringe with a 27 gauge needle. Ex vivo experiments can be performed with animals containing tumors weighing between 500 mg and 1 g, as estimated by caliper measurement (tumor weight=(π/6)*abc, where a, b and c are the tumor length, width and height, respectively). The compounds of the invention are further evaluated for their tumor specificity and selectivity in tumor-bearing animal models. One can evaluate and compare the transport, accumulation and tissue distribution of each compound in these in vivo animal studies. Tissue distribution of the compounds is measured in SCID mice (average weight, 20-25 g) bearing human tumors as follows. The candidate radioligands (20 uCi in 0.4 ml 0.9% NaCl) are injected into the tail vein of tumor-bearing mice. […] Tissues (blood, heart, liver, lungs, kidneys, bone, thyroid, muscle, brain and tumor) are excised, rinsed in saline, and blotted dry. The tissues are weighed, placed into 12×75 mm glass vials, the radioactivity determined with a gamma counter, and the percent dose/gram calculated. Total activities of blood and muscle are calculated by assuming that they account for 7% and 40% of the total body mass, respectively.

Structure (SMILES): NC1(C(=O)O)CCC1[18F] [Anti-R,S 2-[^18F]FACBC, (R,S) anti-1-amino-2-[^18F]fluorocyclobutyl-1-carboxylic acid]
- % Dose Uptake/0.5e6 Cells (SKOV3 ovarian carcinoma; SKOV3, No inhibitor): 2.16 +/− 0.14 % Dose Uptake/0.5e6 Cells
- % Dose Uptake/0.5e6 Cells (SKOV3 ovarian carcinoma; SKOV3, inhibitor BCH (10 mM)): 1.74 +/− 0.01 % Dose Uptake/0.5e6 Cells
- % Dose Uptake/0.5e6 Cells (SKOV3 ovarian carcinoma; SKOV3, inhibitor MeAlB (10 mM)): 0.75 +/− 0.01 % Dose Uptake/0.5e6 Cells
- % Dose/g blood ([1]; 15 Minutes): 3.50 % Dose/g
- % Dose/g bone ([1]; 15 Minutes): 2.10 % Dose/g
- % Dose/g brain ([1]; 15 Minutes): 0.28 % Dose/g
- % Dose/g heart ([1]; 15 Minutes): 2.59 % Dose/g
- % Dose/g kidney ([1]; 15 Minutes): 9.21 % Dose/g
- % Dose/g liver ([1]; 15 Minutes): 3.43 % Dose/g
- % Dose/g lung ([1]; 15 Minutes): 4.08 % Dose/g
- % Dose/g muscle ([1]; 15 Minutes): 1.45 % Dose/g
- % Dose/g pancreas ([1]; 15 Minutes): 49.78 % Dose/g
- % Dose/g spleen ([1]; 15 Minutes): 6.63 % Dose/g
- % Dose/g tumor ([1]; 15 Minutes): 6.48 % Dose/g
- % Dose/g blood ([1]; 30 Minutes): 2.17 % Dose/g
- % Dose/g bone ([1]; 30 Minutes): 1.66 % Dose/g
- % Dose/g brain ([1]; 30 Minutes): 0.22 % Dose/g
- % Dose/g heart ([1]; 30 Minutes): 2.00 % Dose/g
- % Dose/g kidney ([1]; 30 Minutes): 5.08 % Dose/g
- % Dose/g liver ([1]; 30 Minutes): 2.58 % Dose/g
- % Dose/g lung ([1]; 30 Minutes): 2.82 % Dose/g
- % Dose/g muscle ([1]; 30 Minutes): 1.12 % Dose/g
- % Dose/g pancreas ([1]; 30 Minutes): 41.30 % Dose/g
- % Dose/g spleen ([1]; 30 Minutes): 5.11 % Dose/g
- % Dose/g tumor ([1]; 30 Minutes): 5.44 % Dose/g
- % Dose/g blood ([1]; 60 Minutes): 0.81 % Dose/g
- % Dose/g bone ([1]; 60 Minutes): 1.21 % Dose/g
- % Dose/g brain ([1]; 60 Minutes): 0.17 % Dose/g
- % Dose/g heart ([1]; 60 Minutes): 1.13 % Dose/g
- % Dose/g kidney ([1]; 60 Minutes): 2.00 % Dose/g
- % Dose/g liver ([1]; 60 Minutes): 1.22 % Dose/g
- % Dose/g lung ([1]; 60 Minutes): 1.15 % Dose/g
- % Dose/g muscle ([1]; 60 Minutes): 1.10 % Dose/g
- % Dose/g pancreas ([1]; 60 Minutes): 17.78 % Dose/g
- % Dose/g spleen ([1]; 60 Minutes): 3.02 % Dose/g
- % Dose/g tumor ([1]; 60 Minutes): 3.61 % Dose/g
- % Dose/g blood ([1]; 120 Minutes): 0.46 % Dose/g
- % Dose/g bone ([1]; 120 Minutes): 1.20 % Dose/g
- % Dose/g brain ([1]; 120 Minutes): 0.16 % Dose/g
- % Dose/g heart ([1]; 120 Minutes): 0.89 % Dose/g
- % Dose/g kidney ([1]; 120 Minutes): 1.10 % Dose/g
- % Dose/g liver ([1]; 120 Minutes): 0.75 % Dose/g
- % Dose/g lung ([1]; 120 Minutes): 0.64 % Dose/g
- % Dose/g muscle ([1]; 120 Minutes): 0.99 % Dose/g
- % Dose/g pancreas ([1]; 120 Minutes): 10.20 % Dose/g
- % Dose/g spleen ([1]; 120 Minutes): 1.48 % Dose/g
- % Dose/g tumor ([1]; 120 Minutes): 2.73 % Dose/g

— patent publication US8834841B2, “Imaging agents” (priority 2005, dated 2014)
